The source of these data is ChEMBL document CHEMBL4602696, “LMP2 Inhibitors as a Potential Treatment for Alzheimer's Disease” (J Med Chem, 2020).

Each structure is given as a SMILES string. Calls of active or inactive are those of the source. The rule behind the calls is not given here.

The target in series [1] is T1, Proteasome subunit beta type-9 (Homo sapiens, UniProt P28065).
T1 sequence (P28065 whole entry): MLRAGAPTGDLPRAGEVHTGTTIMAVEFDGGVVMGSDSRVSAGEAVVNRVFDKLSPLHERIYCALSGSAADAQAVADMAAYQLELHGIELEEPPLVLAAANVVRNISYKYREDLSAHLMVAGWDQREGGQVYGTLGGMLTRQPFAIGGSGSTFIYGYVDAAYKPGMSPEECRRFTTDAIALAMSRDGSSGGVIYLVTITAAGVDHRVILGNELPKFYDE
The series is described as follows: Inhibition of LMP2 in human 20S immunoproteasome using Ac-PAL-AMC as substrate after 1 hr by fluorescence based microplate reader analysis.

Series [2] addresses T2, Proteasome subunit beta type-9 (Homo sapiens) (UniProt P28065).
T2 sequence (whole entry): T1 sequence (P28065 whole entry)
The series is described as follows: Inhibition of LMP2 subunit in human DLD1 cells over expressing ABCB1 at 1 uM using Ac-PAL-AMC as substrate incubated for 4 hrs. Format: cell-based. The following applies: DLD-1.

The nature of series [3]: Inhibition of LMP7/Beta 5 subunit chymotrypsin-like activity in human RPM18226 cell lysates using Suc-LLVY-AMC as substrate after 1 hr by fluorescence based microplate reader analysis. It counts as cell-free. The note with it: rpmi-8226.
In series [4] the target is T3, Proteasome subunit beta type-8 (Homo sapiens, UniProt P28062).
T3 sequence (P28062 whole entry): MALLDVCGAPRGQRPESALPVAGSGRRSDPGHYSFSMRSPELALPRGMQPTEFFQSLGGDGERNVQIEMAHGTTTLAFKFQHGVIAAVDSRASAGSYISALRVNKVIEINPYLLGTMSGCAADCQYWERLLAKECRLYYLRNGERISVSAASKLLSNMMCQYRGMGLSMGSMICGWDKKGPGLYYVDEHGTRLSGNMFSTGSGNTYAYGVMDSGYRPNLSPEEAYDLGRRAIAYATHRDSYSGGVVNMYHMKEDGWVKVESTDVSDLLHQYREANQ
The series is described as follows: Inhibition of LMP7 in human 20S immunoproteasome using Ac-ANW-AMC as substrate after 1 hr by fluorescence based microplate reader analysis.

The target in series [5] is T2, Proteasome subunit beta type-9 (Homo sapiens). The series is described as follows: Inhibition of immunoproteasome LMP2 subunit in human DLD1 cells over expressing ABCB1 at 3 uM using Ac-PAL-AMC as substrate incubated for 4 hrs in presence of reversin-121. The note with it: DLD-1. It counts as cell-based.
The target of series [6] is T4, Proteasome Macropain subunit MB1 (Homo sapiens, UniProt P28074).
T4 sequence (P28074 whole entry): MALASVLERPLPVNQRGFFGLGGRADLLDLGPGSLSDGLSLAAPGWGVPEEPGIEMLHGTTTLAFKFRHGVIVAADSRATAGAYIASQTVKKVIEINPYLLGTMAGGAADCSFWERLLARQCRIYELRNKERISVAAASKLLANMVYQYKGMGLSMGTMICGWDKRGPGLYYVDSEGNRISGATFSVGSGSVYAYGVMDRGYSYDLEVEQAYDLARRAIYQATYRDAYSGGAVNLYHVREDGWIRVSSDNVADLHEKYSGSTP
The series can be described thus: Inhibition of Beta5 in human 20S […] usingAc-WLA-AMC as substrate after 1 hr by fluorescence based microplate reader analysis.

In series [7] the test system is Mus musculus. The series is described as follows: Antialzheimer activity in transgenic Tg2576 ICR mouse assessed as reduction in IL-1alpha level in serum at 10 mg/kg, iv administered twice per week for 3 weeks by ELISA. Format: functional, organism-based. For orientation: An ELISA detects its analyte on a solid surface through an enzyme-linked reagent.
Series [8] relates to BV-2. The series is described as follows: Antiinflammatory activity against mouse BV2 cells assessed as reduction in LPS-induced IL-1alpha release after 24 hrs by ELISA. Format: functional, cell-based.
A short description of series [9]: Toxicity in transgenic Tg2576 ICR mouse at 10 mg/kg, iv administered twice per week for 3 weeks. The note with it: in vivo, 504 h. It counts as organism-based.
The test system of series [10] is Mus musculus. The series is described as follows: Antineuroinflammatory activity in APP transgenic Tg2576 mouse assessed as inhibition of retinal pigment epithelium degeneration at 10 mg/kg, iv administered twice per week for 3 weeks by immuno staining based confocal microscopic analysis relative to control. It counts as functional. Further details: scale not given: the % may be the effect or the level left.

The subject of the next series is WI-38. The series can be described thus: Cytotoxicity against human WI38 cells up to 10 uM after 72 hrs by CellTiter 96 aqueous one solution reagent based assay. Format: cell-based. The note with it: wi-38, 72 h.
For series [11], the system named is BV-2. The series can be described thus: Cytotoxicity against mouse BV2 cells up to 10 uM after 72 hrs by CellTiter 96 aqueous one solution reagent based assay. It counts as cell-based. The following applies: bv-2, 72 h.
In another series the test system is RPMI-8226. The series is described as follows: Cytotoxicity against human RPM18226 cells up to 10 uM after 72 hrs by CellTiter 96 aqueous one solution reagent based assay. The note with it: rpmi-8226, 72 h. It counts as cell-based.
The target in series [12] is T2, Proteasome subunit beta type-9 (Homo sapiens). The series can be described thus: Inhibition of LMP2 in human ARPE-19 cells assessed as suppression of TNFalpha-stimulated EMT by measuring E-cadherin expression after 24 hrs by immunofluorescence analysis. It counts as cell-based.
Series [13] relates to Mus musculus. The series can be described thus: Antialzheimer activity in transgenic Tg2576 ICR mouse at 10 mg/kg, iv administered twice per week for 3 weeks by Morris water maze test. Format: functional, organism-based.
Series [14] has as its target T2, Proteasome subunit beta type-9 (Homo sapiens). The series can be described thus: Inhibition of LMP2 in human ARPE-19 cells assessed as suppression of TNFalpha-stimulated EMT by measuring vimentin expression after 24 hrs by immunofluorescence analysis. Format: cell-based.

For `C[C@]1(C(=O)[C@H](Cc2ccccc2)NC(=O)[C@H](CO)NC(=O)c2cccc(=O)[nH]2)CO1`, the IC50 is 158 to 162 nM in series [1], > 10000 nM in series [3], > 10000 nM in series [4] and > 10000 nM in series [6]. In [2], the inhibition result is “inactive”. Besides, in series [5], the inhibition result is “Active”.
Regarding `CC(=O)NCC(=O)N1CCC[C@H]1C(=O)N[C@@H](Cc1ccccc1)C(=O)N[C@@H](CC(C)C)C(=O)[C@]1(C)CO1`, the IC50 in [4] and in series [6] was > 10000 nM each time.
With `CC(=O)NCC(=O)N1CCC[C@H]1C(=O)N[C@@H](Cc1ccccc1)C(=O)N[C@@H](CC(C)C)C(=O)[C@@]1(C)CO1`, the inhibition result in series [2] was “inactive”. For the same compound, the IC50 in [3], in series [4] and in [6] was > 10000 nM in each case. The inhibition result in [5] is “Active”.
Regarding `CC(=O)NCC(=O)N1CCC[C@H]1C(=O)N[C@@H](Cc1ccncc1)C(=O)N[C@@H](CC(C)C)C(=O)[C@@]1(C)CO1`, the IC50 in series [1] came to 122 nM; in series [3] it was 10000 nM.
Consider `Cc1ncc(C(=O)NCC(=O)N2CCC[C@H]2C(=O)N[C@@H](Cc2ccc(-c3ccccc3)cc2)C(=O)N[C@@H](CC(C)C)C(=O)[C@@]2(C)CO2)s1`, for which the values for the IC50 in [1] and in [3] were 115 nM and 10000 nM, respectively. The inhibition result in series [2] is “Active”.
On to `CC(C)C[C@H](NC(=O)[C@H](Cc1ccccc1)NC(=O)[C@@H]1CCCN1C(=O)CNS(C)(=O)=O)C(=O)[C@@]1(C)CO1`, for which the IC50 in series [1] is 115 nM; in series [3], > 10000 nM.
In the same order, the values of `CC(=O)NCC(=O)N1CCCC[C@H]1C(=O)N[C@@H](Cc1ccccc1)C(=O)N[C@@H](CC(C)C)C(=O)[C@@]1(C)CO1` are 123 nM and 1310 nM.
As for `CC(C)C[C@H](NC(=O)[C@H](Cc1ccc(-c2ccccc2)cc1)NC(=O)[C@@H]1CCCN1C(=O)CNC(=O)c1cnccn1)C(=O)[C@@]1(C)CO1`, the IC50 in series [1] was 62.8 nM; in series [3], 10000 nM.
In the same order, the values of `CC(=O)NCC(=O)N1CCC[C@@]1(C)C(=O)N[C@@H](Cc1ccccc1)C(=O)N[C@@H](CC(C)C)C(=O)[C@@]1(C)CO1` are 152 nM and > 10000 nM.
With `CC(=O)NCC(=O)N1CCC[C@H]1C(=O)N[C@@H](Cc1ccc(F)cc1)C(=O)N[C@@H](CC(C)C)C(=O)[C@@]1(C)CO1`, the figures for the IC50 in [1] and in series [3] were 82 nM and > 10000 nM, respectively.
For `CC(=O)NCC(=O)N1CCC[C@H]1C(=O)N[C@@H](Cc1cccc2ccccc12)C(=O)N[C@@H](CC(C)C)C(=O)[C@@]1(C)CO1`, the IC50 is 29.7 nM in series [1] and > 10000 nM in series [3].
On to `CC(=O)NCC(=O)N1CCC[C@H]1C(=O)N[C@@H](Cc1ccc2ccccc2c1)C(=O)N[C@@H](CC(C)C)C(=O)[C@@]1(C)CO1`, for which the values for the IC50 in series [1] and in series [3] were 33.5 nM and > 10000 nM, respectively.
For `CC(=O)NCC(=O)N1CC[C@H]1C(=O)N[C@@H](Cc1ccccc1)C(=O)N[C@@H](CC(C)C)C(=O)[C@@]1(C)CO1`, the half-maximal inhibitory concentration (IC50) is 100 nM in [1] and > 10000 nM in series [3].
Taken in the same sequence, the figures for `CC(=O)NCC(=O)N1CCC[C@H]1C(=O)N[C@@H](Cc1ccccc1)C(=O)N[C@@H](CC1CCCCC1)C(=O)[C@@]1(C)CO1` were 201 nM and > 10000 nM.
In the same order, the values of `CC(=O)NCC(=O)N1CC(F)(F)C[C@H]1C(=O)N[C@@H](Cc1ccccc1)C(=O)N[C@@H](CC(C)C)C(=O)[C@@]1(C)CO1` are 71.8 nM and > 10000 nM.
With `Cc1ncc(C(=O)NCC(=O)N2CCC[C@H]2C(=O)N[C@@H](Cc2ccc3ccccc3c2)C(=O)N[C@@H](CC(C)C)C(=O)[C@@]2(C)CO2)s1`, the IC50 in series [1] is 183 nM; in series [3], > 10000 nM.
With `CC(C)C[C@H](NC(=O)[C@H](CCc1ccccc1)NC(=O)[C@@H]1CCCN1C(=O)CNC(=O)c1cnccn1)C(=O)[C@@]1(C)CO1`, the IC50 is 131 nM in series [1] and > 10000 nM in series [3]. Further, the inhibition entry in [2] was “Active”.
Consider `CC(C)C[C@H](NC(=O)[C@H](Cc1ccccc1)NC(=O)[C@@H]1CCCN1C(=O)CNC(=O)C(F)(F)F)C(=O)[C@@]1(C)CO1`, for which the 50% inhibitory concentration (IC50) is 131 nM in series [1] and > 10000 nM in [3].
Consider `CC(=O)NCC(=O)N1CCC[C@H]1C(=O)N[C@@H](CCc1ccccc1)C(=O)N[C@@H](CC(C)C)C(=O)[C@@]1(C)CO1`, for which the values for the IC50 in series [1] and in [3] were 58 nM and > 10000 nM, respectively.
In the same order, the values of `Cc1ncc(C(=O)NCC(=O)N2CCC[C@H]2C(=O)N[C@@H](Cc2ccccc2)C(=O)N[C@@H](CC(C)C)C(=O)[C@@]2(C)CO2)s1` are 106 nM and > 10000 nM.
For the compound `CC(C)C[C@H](NC(=O)[C@H](Cc1ccccc1)NC(=O)[C@@H]1CCCN1C(=O)CNC(=O)c1cnccn1)C(=O)[C@@]1(C)CO1`, the IC50 in series [1] is 70 to 80.6 nM; in series [3] it was > 10000 nM; in series [4], > 10000 nM; in series [6], > 10000 nM. The inhibition result in series [2], in [12], in series [14] and in series [5] was “Active” in each case. For the same compound, the outcome in the series on Mus musculus [7], in the series with BV-2 [8] and with Mus musculus [13] was Active. Besides, the Activity result is reported as “Non-Toxic” in series [9]; 100% with Mus musculus [10]; “Non-Toxic” with WI-38; “Non-Toxic” in the series with BV-2 [11]; “Non-Toxic” in the series with RPMI-8226.

Broadly, the IC50 is the concentration needed to halve the response being measured.
